From the Deep4Chem optical property database come the findings set out here.

Where “and” joins values, the source holds several entries; their conditions need not be identical. Equal entries are not always repeated.

The data set can be described thus: photoluminescence quantum yield (fraction); solvent given as SMILES.
Setting [1] is: in O=P(c1ccccc1)(c1ccccc1)c1ccccc1Oc1ccccc1P(=O)(c1ccccc1)c1ccccc1.

In the case of `CCCCn1c(-c2ccc(-c3nnc(-c4cccs4)o3)cc2)nc2c3ccccc3c3ccccc3c21`, the photoluminescence quantum yield (in ClCCl) came out at 0.62.
For the setting “in ClCCl”, `O=C1c2cc3ccccc3cc2C2=Nc3cccc[n+]3[B-](F)(F)N12` gave a photoluminescence quantum yield of 0.86.
Regarding `c1ccc(/C(=C(\c2ccccc2)c2cc(-c3ccccc3)ccc2-c2ccccc2)c2cc(-c3ccccc3)ccc2-c2ccccc2)cc1`, where the note is “in C1CCOC1”, the photoluminescence quantum yield amounted to 0.3.
Still for that read-out and setting: then `CCC1(CC)c2ccccc2-c2c1c1c(c3c2C(CC)(CC)c2cc(B(c4c(C)cc(C)cc4C)c4c(C)cc(C)cc4C)ccc2-3)C(CC)(CC)c2ccccc2-1`, with 0.56.
Molecule `c1ccc2c(c1)Oc1ccccc1N2c1ccc2c(c1)c1ccccc1n1c3ccccc3nc21` displayed a photoluminescence quantum yield under setting [1] of 0.8.
For the molecule `CCC1=C(C)c2cc3c(OC)cc(OC)cc3c(=O)n2C1=O`, the photoluminescence quantum yield runs as follows: (in CC#N) 0.54; (in CO) 0.44; (in CS(C)=O) 0.6; (in ClC(Cl)Cl) 0.6.
Consider `CN(C)c1ccc(-c2cc(-c3ccccc3)nn2C)cc1`, for which the photoluminescence quantum yield (in ClCCl) was determined as 0.06.
In the case of `F[B-]1(F)n2c(cc3c4ccccc4c4ccccc4c32)-c2ccc3ccccc3[n+]21`, under “in ClCCl”, the photoluminescence quantum yield worked out at 0.9.
Consider `CCCCN(CCCC)c1ccc(/C=C/c2ccc3c(c2)CCc2cc(/C=C/c4ccc(N(CCCC)CCCC)cc4)ccc2-3)cc1`, for which the photoluminescence quantum yield by setting is: (in CS(C)=O) 0.87; (in Cc1ccccc1) 0.71.
In the case of `COc1ccc(C#Cc2nc3ccccc3nc2-c2ccn(-c3ccccc3)c2)cc1`, the photoluminescence quantum yield (in ClCCl) was found to be 0.24.
For the molecule `COC(=O)c1ccc(/C=C2\N=C(c3ccccc3)NC2=O)cc1`, for the setting “in C1COCCO1”, the photoluminescence quantum yield was 0.159.
Under setting [1], `c1ccc(-c2nc(-c3ccccc3)nc(-c3ccc(-n4c5ccccc5c5c6c(ccc54)C4(c5ccccc5-c5ccccc54)c4ccccc4-6)cc3)n2)cc1` returned a photoluminescence quantum yield of 0.45.
As for `Cc1cc2c(o1)=CC1=Cc3cc4oc(C)cc4n3[B-](F)(F)[N+]=21`, the photoluminescence quantum yield worked out at 0.93 (in C1CCOC1); 0.95 (in CC#N); 0.97 (in CCO); 0.96 (in CO); 0.94 (in Cc1ccccc1); 0.96 (in ClC(Cl)Cl).
Regarding `COC(=O)c1nc2c(N)nc(N(C)C)nc2n1Cc1ccccc1`, the photoluminescence quantum yield by setting is: (in C1COCCO1) 0.95; (in CC#N) 0.75; (in CO) 0.76; (in ClCCl) 0.95.
Turning to `CCC1=C(C)C2=C(c3c4ccccc4c(C)c4ccccc34)c3c(C)c(CC)c(C)n3[B-](F)(F)[N+]2=C1C`, the photoluminescence quantum yield is, setting by setting: (in CC#N) 0.054; (in CCCCCC) 0.883; (in CCO) 0.314; (in CN(C)C=O) 0.111; (in Cc1ccccc1) 0.863; (in ClCCl) 0.667.
On to `CCn1c2ccccc2c2cc(-c3cc(-c4ccc5c(c4)c4ccccc4n5CC)nc(SC)n3)ccc21`, for which the photoluminescence quantum yield reads like this: (in C1CCOC1) 0.23; (in CCOC(C)=O) 0.39; (in CN(C)C=O) 0.46; (in Cc1ccccc1) 0.35; (in ClCCl) 0.31.
Under “in Cc1ccccc1”, `Cc1cc(C)c(B(c2ccccc2N(c2ccccc2)c2ccccc2)c2c(C)cc(C)cc2C)c(C)c1` displayed a photoluminescence quantum yield of 0.73.
`c1ccc(-c2ccc(-c3cc(-c4ccc(-c5ccccc5)cc4)cc(-c4ccc(-c5ccccc5)cc4)c3)cc2)cc1`: for the setting “in C1COCCO1”, the photoluminescence quantum yield was found to be 0.27.
`COc1ccc(-c2nc(-c3ccc(C)cc3)c3ccccn23)cc1`: the photoluminescence quantum yield (in ClC(Cl)Cl) stood at 0.13.
Turning to `CC[N+]1(CC)CN2C(C)=CC(C)=C(C(=O)O)C2=N1`, the photoluminescence quantum yield is, setting by setting: (in CN(C)C=O) 0.056; (in O) 0.622.
Take `CC1=CC(C)=[N+]2C1=C(c1ccc(C)cc1)c1c(C)cc(/C=C/c3ccc4ccc5cccc6ccc3c4c56)n1[B-]2(F)F`: under “in CC1CCCO1”, the photoluminescence quantum yield was determined as 0.64.
`CCN(CC)c1ccc2cc(/C=C/c3ccccc3)c(=O)oc2c1`: the photoluminescence quantum yield (in CC#N) stood at 0.85.
`CCCCCCCC(=O)Oc1ccc2c3cccc4c(OC(=O)CCCCCCC)ccc(c5cccc1c52)c43`: the photoluminescence quantum yield is, setting by setting: (in C1CCOC1) 0.97; (in Cc1ccccc1) 0.97; (in ClC(Cl)(Cl)Cl) 0.06; (in ClC(Cl)Cl) 0.91; (in ClCCl) 0.8; (in c1ccncc1) 0.93.
Take `CCCCOC(=O)c1ccccc1-c1c2ccc(=[N+](CC)CC)cc-2oc2cc(N(CC)CC)ccc12`: the photoluminescence quantum yield turned out to be 0.36 (in CC#N), 0.71 (in CCO), 0.35 (in CN(C)C=O) and 0.3 (in O).
With `C(#Cc1cccs1)C(C#Cc1cccs1)=Cc1ccc(C=C(C#Cc2cccs2)C#Cc2cccs2)cc1`, the photoluminescence quantum yield (in ClC(Cl)Cl) is 0.32 and 0.25.
With `COc1ccc(C2=C(C)C3=C(c4c(-c5ccccn5)nc5ccccn45)c4c(C)c(-c5ccc(OC)cc5)c(C)n4[B-](F)(F)[N+]3=C2C)cc1`, where the note is “in ClCCl”, the photoluminescence quantum yield is 0.416.
Under “in Cc1ccccc1”, `Cc1ccc(N2C(c3ccccc3N(C)C)=NC(c3ccccc3)C2c2ccccc2)cc1` (stereo not given) displayed a photoluminescence quantum yield of 0.275.
As for `CCCCCCCCN1c2ccccc2Sc2cc(/C=C/c3ccc(N(c4ccc(/C=C/c5ccc6c(c5)Sc5ccccc5N6CCCCCCCC)cc4)c4ccc(/C=C/c5ccc(/C=C/c6ccc(N(c7ccc(/C=C/c8ccc(N(c9ccccc9)c9ccccc9)cc8)cc7)c7ccc(/C=C/c8ccc(N(c9ccccc9)c9ccccc9)cc8)cc7)cc6)c6nsnc56)cc4)cc3)ccc21`, the photoluminescence quantum yield by setting is: (in C1CCOC1) 0.031; (in CCOC(C)=O) 0.062; (in CN(C)C=O) 0.001; (in Cc1ccccc1) 0.349; (in ClC(Cl)Cl) 0.06; (in ClCCl) 0.003.
`COc1ccc(N(c2ccc(OC)cc2)c2ccc(-c3ccc4c(c3)C(=O)c3ccccc3C4=O)cc2)cc1`: the photoluminescence quantum yield was 0 (in C1CCOC1); 0.265 (in CCCCCC); 0 (in CCOC(C)=O); 0.0045 (in Cc1ccccc1); 0.0538 (in ClC(Cl)(Cl)Cl); 0 (in ClCCl).
Regarding `N#C/C(=C/Nc1ccc(C#N)cc1)c1nc(-c2ccccc2)cs1`, the photoluminescence quantum yield is 0 (in CC#N); 0.0001 (in CCO); 0.0001 (in CN(C)C=O); 0.0001 (in Cc1ccccc1); 0.0001 (in ClCCl).
`F[B-]12OC(c3ccccc3)=Nc3cccc([n+]31)N=C(c1ccccc1)O2`: the photoluminescence quantum yield (in ClCCl) is 0.2.
Regarding `CC1=C2C=CC=[N+]2[B-](F)(F)n2cccc21`, the photoluminescence quantum yield by setting is: (in CCCCCC) 0.96; (in CO) 1; (in ClCCl) 0.88.
In the case of `CCCCOC(=O)c1cc(Oc2ccc(C(C)(C)C)cc2)c2c3c(Cl)cc4c5c(cc(Cl)c(c6c(Oc7ccc(C(C)(C)C)cc7)cc(C(=O)OCCCC)c1c26)c53)C(=O)N(c1c(C(C)C)cccc1C(C)C)C4=O`, for the setting “in Cc1ccccc1”, the photoluminescence quantum yield was 0.79.
Take `COC(=O)c1[nH]c(-c2ccc(Br)cc2)c2nnc3ccc(OC)cc3c12`: the photoluminescence quantum yield (in ClCCl) stood at 0.114.
